This is an account of results in patent publication US8716292B2, “Riminophenazines with 2-(heteroaryl)amino substituents and their anti-microbial activity” (priority 2010, dated 2014).

In brackets after ≈: the same amount, converted by molar mass.

In the experiment the test system is Mycobacterium tuberculosis H37Rv strains. In words: In vitro assay for antimicrobial susceptibility (microplate Alamar blue MIC). It counts as cell-based. As to conditions: Mycobacterium tuberculosis, H37RV, in vitro, Mycobacterium tuberculosis H37Rv strains; read-out: MIC (μg/mL) against H37Rv.
Regarding `Cc1ccc(-n2c3c/c(=N\C4CCCCC4)c(Nc4ccc(C)nc4)cc-3nc3ccccc32)cc1` [TBI-306, 5-(4-Methylphenyl)-3-cyclohexylimino-2-(6-methyl-3-pyridyl)amino-3,5-dihydrophenazine], the MIC was determined as 0.106 µg/mL (≈ 0.224 µM).

On to `Cc1ccc(-n2c3c/c(=N\C4CCN(C5CCCC5)CC4)c(Nc4cccnc4)cc-3nc3ccccc32)cc1` [TBI-307, 5-(4-Methylphenyl)-3-(N-cyclopentyl-4-piperidyl)imino-2-(3-pyridyl)amino-3,5-dihydrophenazine], for which the MIC came out at 0.125 µg/mL (≈ 0.236 µM).

Turning to `COc1ncccc1Nc1cc2nc3ccccc3n(-c3ccc(C)cc3)c-2c/c1=N\C(C)C` [TBI-308, 5-(4-Methylphenyl)-3-(1-methylethyl)imino-2-(2-methoxy-3-pyridyl)amino-3,5-dihydrophenazine], the MIC amounted to 0.125 µg/mL (≈ 0.278 µM).

Consider `COc1ncccc1Nc1cc2nc3ccccc3n(-c3ccc(C)cc3)c-2c/c1=N\C1CCC(OC)CC1` (stereo not drawn) [TBI-309, 5-(4-Methylphenyl)-3-(4-methoxycyclohexyl)imino-2-(2-methoxy-3-pyridyl)amino-3,5-dihydrophenazine], for which the MIC was 0.06 µg/mL (≈ 0.115 µM).

With `COc1ncccc1Nc1cc2nc3ccccc3n(-c3ccc(C)cc3)c-2c/c1=N\C1CCOCC1` [TBI-310, 5-(4-Methylphenyl)-3-(4-tetrahydropyranyl)imino-2-(2-methoxy-3-pyridyl)amino-3,5-dihydrophenazine], the MIC worked out at 0.03 µg/mL (≈ 0.061 µM).

`COc1ncccc1Nc1cc2nc3ccccc3n(-c3ccc(C)cc3)c-2c/c1=N\CCN1CCOCC1` [TBI-311, 5-(4-Methylphenyl)-3-(2-morpholinoethyl)imino-2-(2-methoxy-3-pyridyl)amino-3,5-dihydrophenazine]: the MIC came to 0.125 µg/mL (≈ 0.24 µM).

Take `Cc1ccc(-n2c3c/c(=N\C4CCCCC4)c(Nc4cccnc4C)cc-3nc3ccccc32)cc1` [TBI-312, 5-(4-Methylphenyl)-3-cyclohexylimino-2-(2-methyl-3-pyridyl)amino-3,5-dihydrophenazine]: the MIC is 0.053 µg/mL (≈ 0.112 µM).

`COc1ncccc1Nc1cc2nc3ccccc3n(-c3ccc(C)cc3)c-2c/c1=N\C1CCN(C)CC1` [TBI-313, 5-(4-Methylphenyl)-3-(N-methyl-4-piperidyl)imino-2-(2-methoxy-3-pyridyl)amino-3,5-dihydrophenazine]: the MIC was 0.016 µg/mL (≈ 0.0317 µM).

Consider `COc1ncccc1Nc1cc2nc3ccccc3n(-c3ccc(C)cc3)c-2c/c1=N\C1CCN(CC(C)C)CC1` [TBI-314, 5-(4-Methylphenyl)-3-(N-isobutyl-4-piperidyl)imino-2-(2-methoxy-3-pyridyl)amino-3,5-dihydrophenazine], for which the MIC came to 0.024 µg/mL (≈ 0.0439 µM).

`Cc1ccc(-n2c3c/c(=N\C(C)C)c(Nc4ccc(C)nc4)cc-3nc3ccccc32)cc1` [TBI-315, 5-(4-Methylphenyl)-3-(1-methylethyl)imino-2-(6-methyl-3-pyridyl)amino-3,5-dihydrophenazine]: the MIC worked out at 0.057 µg/mL (≈ 0.131 µM).

For `COC1CCC(/N=c2\cc3n(-c4ccc(C)cc4)c4ccccc4nc-3cc2Nc2ccc(C)nc2)CC1` (stereo not drawn) [TBI-316, 5-(4-Methylphenyl)-3-(4-methoxycyclohexyl)imino-2-(6-methyl-3-pyridyl)amino-3,5-dihydrophenazine], the MIC worked out at 0.028 µg/mL (≈ 0.0556 µM).

Consider `Cc1ccc(-n2c3c/c(=N\C4CCOCC4)c(Nc4ccc(C)nc4)cc-3nc3ccccc32)cc1` [TBI-317, 5-(4-Methylphenyl)-3-(4-tetrahydropyranyl)imino-2-(6-methyl-3-pyridyl)amino-3,5-dihydrophenazine], for which the MIC was found to be 0.055 µg/mL (≈ 0.116 µM).

As for `Cc1ccc(-n2c3c/c(=N\CCN4CCOCC4)c(Nc4ccc(C)nc4)cc-3nc3ccccc32)cc1` [TBI-318, 5-(4-Methylphenyl)-3-(2-morpholinoethyl)imino-2-(6-methyl-3-pyridyl)amino-3,5-dihydrophenazine], the MIC turned out to be 0.087 µg/mL (≈ 0.172 µM).

Take `Cc1ccc(-n2c3c/c(=N\C4CCN(C)CC4)c(Nc4ccc(C)nc4)cc-3nc3ccccc32)cc1` [TBI-319, 5-(4-Methylphenyl)-3-(N-methyl-4-piperidyl)imino-2-(6-methyl-3-pyridyl)amino-3,5-dihydrophenazine]: the MIC is 0.173 µg/mL (≈ 0.354 µM).

On to `Cc1ccc(-n2c3c/c(=N\C4CCN(CC(C)C)CC4)c(Nc4ccc(C)nc4)cc-3nc3ccccc32)cc1` [TBI-320, 5-(4-Methylphenyl)-3-(N-isobutyl-4-piperidyl)imino-2-(6-methyl-3-pyridyl)amino-3,5-dihydrophenazine], for which the MIC was determined as 0.11 µg/mL (≈ 0.207 µM).

`Cc1ccc(-n2c3c/c(=N\C(C)C)c(Nc4cccnc4C)cc-3nc3ccccc32)cc1` [TBI-321, 5-(4-Methylphenyl)-3-(1-methylethyl)imino-2-(2-methyl-3-pyridyl)amino-3,5-dihydrophenazine]: the MIC turned out to be 0.419 µg/mL (≈ 0.966 µM).

As to `COC1CCC(/N=c2\cc3n(-c4ccc(C)cc4)c4ccccc4nc-3cc2Nc2cccnc2C)CC1` (stereo not drawn) [TBI-322, 5-(4-Methylphenyl)-3-(4-methoxycyclohexyl)imino-2-(2-methyl-3-pyridyl)amino-3,5-dihydrophenazine], the MIC is 0.092 µg/mL (≈ 0.183 µM).

On to `Cc1ccc(-n2c3c/c(=N\C4CCOCC4)c(Nc4cccnc4C)cc-3nc3ccccc32)cc1` [TBI-323, 5-(4-Methylphenyl)-3-(4-tetrahydropyranyl)imino-2-(2-methyl-3-pyridyl)amino-3,5-dihydrophenazine], for which the MIC was determined as 0.057 µg/mL (≈ 0.12 µM).

As to `Cc1ccc(-n2c3c/c(=N\CCN4CCOCC4)c(Nc4cccnc4C)cc-3nc3ccccc32)cc1` [TBI-324, 5-(4-Methylphenyl)-3-(2-morpholinoethyl)imino-2-(2-methyl-3-pyridyl)amino-3,5-dihydrophenazine], the MIC is 0.12 µg/mL (≈ 0.238 µM).

Regarding `Cc1ccc(-n2c3c/c(=N\C4CCN(CC(C)C)CC4)c(Nc4cccnc4C)cc-3nc3ccccc32)cc1` [TBI-325, 5-(4-Methylphenyl)-3-(N-isobutyl-4-piperidyl)imino-2-(2-methyl-3-pyridyl)amino-3,5-dihydrophenazine], the MIC came to 0.056 µg/mL (≈ 0.106 µM).

Turning to `Cc1ccc(-n2c3c/c(=N\C4CCN(C)CC4)c(Nc4cccnc4C)cc-3nc3ccccc32)cc1` [TBI-326, 5-(4-Methylphenyl)-3-(N-methyl-4-piperidyl)imino-2-(2-methyl-3-pyridyl)amino-3,5-dihydrophenazine], the MIC is 0.1 µg/mL (≈ 0.205 µM).

Turning to `Cc1ccc(-n2c3c/c(=N\C(C)C)c(Nc4cncc(C)c4)cc-3nc3ccccc32)cc1` [TBI-327, 5-(4-Methylphenyl)-3-(1-methylethyl)imino-2-(5-methyl-3-pyridyl)amino-3,5-dihydrophenazine], the MIC turned out to be 0.109 µg/mL (≈ 0.251 µM).

As to `Cc1ccc(-n2c3c/c(=N\C4CCOCC4)c(Nc4cncc(C)c4)cc-3nc3ccccc32)cc1` [TBI-328, 5-(4-Methylphenyl)-3-(4-tetrahydropyranyl)imino-2-(5-methyl-3-pyridyl)amino-3,5-dihydrophenazine], the MIC came to 0.037 µg/mL (≈ 0.0778 µM).

As to `Cc1ccc(-n2c3c/c(=N\C4CCCCC4)c(Nc4cncc(C)c4)cc-3nc3ccccc32)cc1` [TBI-329, 5-(4-Methylphenyl)-3-cyclohexylimino-2-(5-methyl-3-pyridyl)amino-3,5-dihydrophenazine], the MIC is 0.092 µg/mL (≈ 0.194 µM).

With `COC1CCC(/N=c2\cc3n(-c4ccc(C)cc4)c4ccccc4nc-3cc2Nc2cncc(C)c2)CC1` (stereo not drawn) [TBI-330, 5-(4-Methylphenyl)-3-(4-methoxycyclohexyl)imino-2-(5-methyl-3-pyridyl)amino-3,5-dihydrophenazine], the MIC was determined as 0.035 µg/mL (≈ 0.0695 µM).

Turning to `COc1ncccc1Nc1cc2nc3ccccc3n(-c3ccc(C)cc3)c-2c/c1=N\C1CCCCC1` [TBI-331], the MIC worked out at 0.047 µg/mL (≈ 0.096 µM).

Take `COc1ncccc1Nc1cc2nc3ccccc3n(-c3ccc(C)cc3)c-2c/c1=N\C1CCC(O)CC1` (stereo not drawn) [TBI-332, 5-(4-Methylphenyl)-3-(4-hydroxycyclohexyl)imino-2-(2-methoxy-3-pyridyl)amino-3,5-dihydrophenazine]: the MIC amounted to 0.294 µg/mL (≈ 0.581 µM).

Take `Cc1ccc(-n2c3c/c(=N\C4CCCCC4)c(Nc4cccnc4)cc-3nc3ccccc32)cc1` [TBI-333, 5-(4-Methylphenyl)-3-cyclohexylimino-2-(3-pyridyl)amino-3,5-dihydrophenazine]: the MIC was found to be 0.061 µg/mL (≈ 0.133 µM).

Consider `Cc1ccc(-n2c3c/c(=N\C4CCC(O)CC4)c(Nc4ccc(C)nc4)cc-3nc3ccccc32)cc1` (stereo not drawn) [TBI-334, 5-(4-Methylphenyl)-3-(4-hydroxycyclohexyl)imino-2-(6-methyl-3-pyridyl)amino-3,5-dihydrophenazine], for which the MIC turned out to be 0.372 µg/mL (≈ 0.76 µM).

As to `Cc1ccc(-n2c3c/c(=N\C4CCC(O)CC4)c(Nc4cccnc4C)cc-3nc3ccccc32)cc1` (stereo not drawn) [TBI-335, 5-(4-Methylphenyl)-3-(4-hydroxycyclohexyl)imino-2-(2-methyl-3-pyridyl)amino-3,5-dihydrophenazine], the MIC worked out at 0.336 µg/mL (≈ 0.686 µM).

`CC(C)/N=c1\cc2n(-c3ccc(Cl)c(Cl)c3)c3ccccc3nc-2cc1Nc1cccnc1` [TBI-336, 5-(3,4-Dichlorophenyl)-3-(1-methylethyl)imino-2-(3-pyridyl)amino-3,5-dihydrophenazine]: the MIC worked out at 0.055 µg/mL (≈ 0.116 µM).

In the case of `Cc1ccc(-n2c3c/c(=N\C4CCC(O)CC4)c(Nc4cncc(C)c4)cc-3nc3ccccc32)cc1` (stereo not drawn) [TBI-337, 5-(4-Methylphenyl)-3-(4-hydroxycyclohexyl)imino-2-(5-methyl-3-pyridyl)amino-3,5-dihydrophenazine], the MIC is 0.452 µg/mL (≈ 0.923 µM).

In the case of `Cc1ccc(-n2c3c/c(=N\C4CCC(O)CC4)c(Nc4cccnc4)cc-3nc3ccccc32)cc1` (stereo not drawn) [TBI-338, 5-(4-Methylphenyl)-3-(4-hydroxycyclohexyl)imino-2-(3-pyridyl)amino-3,5-dihydrophenazine], the MIC was found to be 0.5 µg/mL (≈ 1.05 µM).

Consider `COc1ncccc1Nc1cc2nc3ccccc3n(-c3ccc(C)cc3)c-2c/c1=N\C1CC1` [TBI-339, 5-(4-Methylphenyl)-3-cyclopropylimino-2-(2-methoxy-3-pyridyl)amino-3,5-dihydrophenazine], for which the MIC was determined as 0.033 µg/mL (≈ 0.0737 µM).

As for `Cc1ccc(-n2c3c/c(=N\C4CC4)c(Nc4ccc(C)nc4)cc-3nc3ccccc32)cc1` [TBI-340, 5-(4-Methylphenyl)-3-cyclopropylimino-2-(6-methyl-3-pyridyl)amino-3,5-dihydrophenazine], the MIC is 0.149 µg/mL (≈ 0.345 µM).

For `Cc1ccc(-n2c3c/c(=N\C4CC4)c(Nc4cccnc4C)cc-3nc3ccccc32)cc1` [TBI-341, 5-(4-Methylphenyl)-3-cyclopropylimino-2-(2-methyl-3-pyridyl)amino-3,5-dihydrophenazine], the MIC is 0.014 µg/mL (≈ 0.0324 µM).
